The values that follow come from US20060148896A1, “Use of an alkanoyl L-carnitine for the preparation of a medication to treat anhedonia” (Sigma-Tau Industrie Farmaceutiche Riunite S.p.A., priority 2001, published 2006).

Holding throughout (assay type): in vivo, rat
Assay [1] deals with dopamine in the nucleus accumbens (Nacs). The experiment in a line: Microdialysis of dopamine in the Nacs after 7-day stress: basal, vanilla sugar meals, cocaine (Example 2). Conditions: for Dopamine (max percentage increase) Meal 1 / Dopamine (max percentage increase) Meal 2: mean ± standard error of 10; for protection from the neurochemical effects resulting from a repeated exposure to stress: Example 2, IMI 5 mg/kg IP BID or FLX 5 mg/kg IP/die for 8 days with 7-day stress. As for the experimental part:
Sixty rats were divided in 6 groups of 10 animals each, as follows:
a) Control (Crt): the animals were administered physiological solution 1 ml/kg IP, BID for 8 days;
b) acetyl L-carnitine: the animals were administered acetyl L-carnitine 10 mg/kg IP, BID for 8 days;
c) Stress: the animals were exposed to the pre-test, they were tested for escape 24 hours later, and then they were exposed to the chronic stress protocol for 7 days, while receiving physiological solution (for 8 days);
d) acetyl L-carnitine+Stress: the animals were exposed to the pre-test, they were tested for escape 24 hours later, and then they were exposed to the chronic stress protocol for 7 days, while receiving acetyl L-carnitine 10 mg/kg IP, BID, for 8 days;
e) IMI+Stress: the animals were exposed to the pre-test, they were tested for escape 24 hours later, and then they were exposed to the chronic stress protocol for 7 days, while receiving IMI 5 mg/kg IP, BID for 8 days;
f) FLX+Stress: the animals were exposed to the pre-test, they were tested for escape 24 hours later, and then they were exposed to the chronic stress protocol for 7 days, while receiving FLX 5 mg/kg IP/die for 8 days.
On day 9, all the animals were implanted with dialysis probes in the Nacs; on day 10, the animals were dialysed.
The basal levels of dopamine were determined over 60 minutes.
At this point, the rats were offered 5 vanilla sugar pellets (Meal 1); 4 samples of dialysis fluid were taken over the next 60 minutes.
The rats were offered vanilla sugar one more time (Meal 2), and samples of dialysis fluid were taken over 60 minutes.
Finally, the rats were injected with cocaine 5 mg/kg IP, 0.1 ml in water and samples of dialysis fluid were taken over 60 minutes.

For assay [2] the test system is unchanged. The experiment in a line: Microdialysis of extraneuronal dopamine in the nucleus accumbens after VAB training (Example 1). As to conditions: rats trained in the Y-maze during chronic stress exposure and treated; for dopamine in the Nacs after the acute administration of cocaine vs control animals (FIGS. 3 and 4): cocaine 5 mg/kg IP. As for the experimental part:
Two days later, animals were implanted with microdialysis probes into the nucleus accumbens (Nacs) (Brain. Res. Protocols 5(1):16-24: 2000) and underwent dialysis on the next day.
Once the dopamine basal level had been reached, the rats were administered a single dose of cocaine 5 mg/kg IP in 0.1 ml volume of water, and dialysed within the next 60 minutes.

Assay [3] has as its system rats exposed to chronic stress. The experiment in a line: Escape test in rats exposed to unavoidable/chronic stress. Conditions: for N0 of escapes After 8 days / N0 of escapes After stress + 3-week VAB training: ALCAR 10 mg/kg IP; for N0 of escapes After 8 days: BID or IMI 5 mg/kg BID plus chronic stress for 8 days; for N0 of escapes After stress + 3-week VAB training: BID or IMI 5 mg/kg BID, 8 days plus 3 weeks with stress on alternate days; for escape deficit induced by chronic stress: second experiment, end of 3-week training. The method, then: c) Stress: 10 rats were treated with physiological solution (1 ml/kg IP, BID) for 14 days. Then, the animals were exposed to the sequence of pre-test [with the pre-test, the animals were exposed to both unavoidable stress (electric shocks) of minimum intensity and duration, capable to induce a reliable modification of behaviour. Brain. Res. Protocols 7(1):11-20; 2001]; escape test [(also defined as “test”) carried out 24 hours after the pre-test, to assess the induced behaviour modification (Brain. Res. Protocols 7(1):11-20; 2001)]; Y- maze training and exposure to the chronic stress procedure on alternate days (maze one day, and stress the next day) for three weeks (Brain. Res. Protocols 7(1): 11-20; 2001), while continuing treatment with physiological solution;
d) acetyl L-carnitine+Stress: 10 rats were treated with acetyl L-carnitine (10 mg/kg, IP, BID) for 14 days. Then, animals were exposed to the sequence of: -pre-test; -test; -Y-maze training and simultaneously exposed to the chronic stress procedure on alternate days (maze one day, and stress the next day) for three weeks, while continuing treatment with acetyl L-camitine.
At the end of the VAB training, all the animals exposed to stress underwent the escape test (Brain. Res. Protocols 7(1):11-20; 2001).
(§1) f) Stress+VAB: the animals were exposed to the pre-test. Twenty-four hours later they were subjected to the escape test, and then exposed to the chronic stress procedure for 7 days. On day 9, they started their training in the Y-maze while exposed to stress on alternate days;
(§2) g) acetyl L-carnitine+Stress+VAB: the animals were exposed to the pre-test. Twenty-four hours later they underwent the escape test. Then, they were exposed to the protocol of chronic stress for 7 days, while receiving acetyl L-carnitine 10 mg/kg IP, BID for 8 days. On day 9, the rats started their VAB training in the Y-maze and exposure to stress on alternate days, while continuing treatment with the acetyl L-carnitine for 3 weeks;
(§3) h) IMI+Stress+VAB: the animals were exposed to the pre-test. Twenty-four hours later, they underwent the escape test, and then they were exposed to the chronic stress protocol for 7 days while receiving imipramine 5 mg/kg IP, BID for 8 days. On day 9, the rats started their training in the Y-maze and exposure to stress on alternate days, while continuing with IMI for 3 weeks.
At the end of the training period, all the animals underwent the escape test.

The subject of assay [4] is rats exposed to chronic stress. The experiment in a line: Acquisition of vanilla sugar-sustained appetitive behaviour (VAB) in the Y-maze during chronic stress. As to conditions: for No. of correct choices: rats, ALCAR 10 mg/kg IP, BID or IMI 5 mg/kg BID started after pre-test, chronic stress 8 days, then 3-week Y-maze training with stress on alternate days, mean ± standard error; for protection from negative effect of chronic stress on VAB acquisition: second experiment: chronic administration during exposure to stress and training in the Y-maze.
Text: The anhedonia model is based on the observation that the fact of being exposed to a repeated unavoidable stress prevents the development of an appetitive behaviour induced and maintained by a highly palatable food (vanilla sugar) in rats fed ad libitum (Behav. Pharmacol. 8:619-628, 1997). […]
The Y-maze was made up of three wings. The vanilla sugar for the acquisition of the appetitive behaviour was in one of the two diverging wings (VAB training, 3 weeks).
e) VAB: the physiological solution was administered to the animals (1 ml/kg IP, BID) for 8 days, and then the rats were trained in the Y-maze for VAB acquisition while continuing the treatment with physiological solution for 3 weeks;
as §1, §2, §3

The mark [5] stands for this setting: rats exposed to chronic stress for 7 days during ALCAR 10 mg/kg IP BID, IMI 5 mg/kg IP BID or FLX 5 mg/kg IP/die, 8 days, Nacs.

Regarding `CC(=O)O[C@H](CC(=O)[O-])C[N+](C)(C)C` [ALCAR, acetyl L-carnitine], the “basal levels of dopamine in the Nacs vs control rats (FIGS. 5 and 6)” value in assay [1] (Example 2, 8-day treatment) is “significantly higher”. The “increase of dopamine in the Nacs after the acute administration of cocaine vs control rats” value in assay [1] (Example 2, 8-day treatment, cocaine 5 mg/kg IP) is recorded as “significantly higher”. Further, in assay [1] (setting [5]), the “Dopamine (max percentage increase) Meal 1” value was determined as 286.4 ± 16.4 % and the “Dopamine (max percentage increase) Meal 2” value amounted to 276.7 ± 18.6 %. Further, the “increase in the output of dopamine after two consecutive vanilla sugar meals” value in assay [1] (rats exposed to stress and treated with acetyl L-carnitine, Nacs) is on record as “approx 300%”. Moreover, the “Dopamine (max percentage increase) Meal 1” value in assay [1] (rats not exposed to stress, acetyl L-carnitine 10 mg/kg IP, BID 8 days, Nacs dialysate after first vanilla sugar meal) is listed as 35.7 ± 1.8 %. Also, the “Dopamine (max percentage increase) Meal 2” value in assay [1] (rats not exposed to stress, acetyl L-carnitine 10 mg/kg IP, BID 8 days, Nacs dialysate after second vanilla sugar meal) is given as 6.8 ± 5.1%. In addition, in assay [2], the “basal levels of extraneuronal dopamine in the Nacs vs control animals (FIGS. 3 and 4)” value is listed as “significantly higher”; the “dopamine output levels in the Nacs vs control group” value is “superimposable to those observed in the control group”; the “dopamine in the Nacs after the acute administration of cocaine vs control animals (FIGS. 3 and 4)” value is “significantly higher”. Besides, in assay [3] (rats, mean ± standard error), the “N0 of escapes After 8 days” value was found to be 1.0 ± 0.5 and the “N0 of escapes After stress + 3-week VAB training” value came out at 22.4 ± 2.8. Also, the “No. of escapes 24 hours after the pre-test” value in assay [3] (rats, acetyl L-carnitine 10 mg/kg IP, BID for 14 days before pre-test, mean ± standard error) is 25.8 ± 2.5. In addition, in assay [3] (rats, acetyl L-carnitine 10 mg/kg IP, BID, 14-day pre-treatment continued during 3-week VAB training and chronic stress, mean ± standard error), the “No. of escapes After training for VAB and exposure to stress” value is given as 26.4 ± 2.9. Besides, the “escape deficit induced by chronic stress” value in assay [3] is “completely reversed”. In assay [4] (first experiment: 14-day pre-treatment 10 mg/kg IP BID, continued throughout training with chronic stress), the “negative effect of chronic stress on VAB acquisition (FIGS. 1 and 2)” value is “prevented such negative effect from occurring”. Besides, in assay [4], the “No. of correct choices” value is given as 7.6 ± 0.5 and the “protection from negative effect of chronic stress on VAB acquisition” value is on record as “fully protected the rats from negative effect of chronic stress on VAB acquisition”.
In the case of `CNCCC(Oc1ccc(C(F)(F)F)cc1)c1ccccc1` (stereo not shown) [FLX, fluoxetine, reference compound], in assay [1], the “protection from the neurochemical effects resulting from a repeated exposure to stress” value is reported as “Neither the treatment with IMI nor the treatment with FLX were capable to protect”. For the same compound, in assay [1] (setting [5]), the “Dopamine (max percentage increase) Meal 1” value worked out at 4.6 ± 4.2% and the “Dopamine (max percentage increase) Meal 2” value is given as 3.6 ± 4.0%.
Consider `CN(C)CCCN1c2ccccc2CCc2ccccc21` [IMI, imipramine, reference compound], for which, in assay [1], the “protection from the neurochemical effects resulting from a repeated exposure to stress” value is listed as “Neither the treatment with IMI nor the treatment with FLX were capable to protect”. In assay [1] (setting [5]), the “Dopamine (max percentage increase) Meal 1” value is on record as 3.3 ± 2.3% and the “Dopamine (max percentage increase) Meal 2” value came out at 4.1 ± 3.5%. For the same compound, in assay [2], the “basal levels of extraneuronal dopamine in the Nacs vs control animals (FIGS. 3 and 4)” value is “significantly lower”; the “dopamine in the Nacs after the acute administration of cocaine vs control animals (FIGS. 3 and 4)” value is on record as “significantly lower”. Moreover, in assay [3] (rats, mean ± standard error), the “N0 of escapes After 8 days” value is on record as 2.5 ± 1.1 and the “N0 of escapes After stress + 3-week VAB training” value worked out at 24.8 ± 1.0. Besides, in assay [3], the “escape deficit induced by chronic stress” value is “completely reversed”. Further, in assay [4], the “No. of correct choices” value was found to be 2.9 ± 1.2 and the “protection from negative effect of chronic stress on VAB acquisition” value is “protected the rats from the negative effect of chronic stress on VAB acquisition”.
